This is an account of results in patent publication US20200276186A1, “USE OF […] TREATING COCAINE ADDICTION, PRURITIS, AND SEIZURE DISORDERS” (PHOENIX […], INC., priority 2017, published 2020).

The test system of this assay is patient with atopic dermatitis. The assay can be described thus: Topical treatment of itching in atopic dermatitis. The note with it: human, indomethacin cream 7.5 mg/g at 75 μg/cm^2. The assay is classed as in vivo. The procedure:
An aqueous solution (10-100 μg/ml) of a compound of Formula (I) is applied topically to the skin lesions on the arms or legs of a patient with atopic dermatitis which had caused severe itching (ranked as “+++” by the patient prior to treatment). The drug solution is applied on five spots with a volume of about 50 μl per 10 cm^2, which was equivalent to a topical dose of […]. As a control, indomethacin cream (concentration of 7.5 mg/g) applied at a dose of 75 μg/cm^2 in the same manner. Itching intensity is evaluated immediately after treatment, 5 minutes after treatment and at hourly time points for several hours following treatment. […] Itch relief typically continues for several hours following treatment.

Consider `COc1ccc2c(c1)c(CC(=O)O)c(C)n2C(=O)c1ccc(Cl)cc1` [indomethecin, indomethacin], for which the “Effect on itch (control)” value was “reduces but fails to eliminate itch”.
